The results in this text go back to patent US4012516A, “Pharmacologically active compositions” (Burroughs Wellcome Co., priority 1975, dated 1977).

What is called inhibition is the drop in the measured response relative to a control, in per cent.

For the test, the system named is human chopped lung tissue. The experiment in a line: Inhibition of histamine release from human chopped lung tissue passively sensitized in vitro with reaginic antibody, challenged with homologous antigen. It counts as cell-based. The following applies: for inhibition at 1 µM: Compound (II) 10^-6 M alone; for inhibition at 0.001 µM: Salbutamol 10^-9 M alone; for inhibition at 0.0001 µM: Salbutamol 10^-10 M alone. From the text: The release of histamine from lung preparations treated in this way is known to be inhibited by both the stimulants and the compounds of formula (I) when used separately, but it has now been shown that their combined effect is greater than was to be expected from a knowledge of the activity of the individual components, and in particular the inhibition is greater than the sum of the individual responses when the components are used separately at the same concentrations. The compounds of formula (I) are represented by the formula [drawing 1] wherein Z is carbonyl (C=O) or oxygen (--O--), and X is carboxy or a 5-tetrazolyl group, and salts thereof with pharmaceutically acceptable cations. Of especial value are:
The experimental procedure used was that using chopped human lung tissue substantially as described in Br. Med. J. 3, 272 (1968).

The mark [1] stands for this setting: Homo sapiens, Experiment A, Compound (II) none, read-out: Percentage Inhibition of Histamine Release.
Where [2] appears, read: Homo sapiens, Experiment B, Compound (II) none, read-out: Percentage Inhibition of Histamine Release.

Read-outs that look alike come from different tables or passages of the source.

As to `O=C1c2ccccc2S(=O)(=O)c2cc(-c3nnn[nH]3)ccc21` [Compound (II), 3-(5-TETRAZOLYL)THIOXANTHONE-10,10-DIOXIDE], the “Percentage Inhibition of Histamine Release” value (from here on “Percentage Inhibition”) (Experiment A, combination: Compound (II) 10^-6 M + Salbutamol 10^-9 M) was 49%; the “Percentage Inhibition” value (Experiment A, combination: Compound (II) 10^-6 M + Salbutamol 10^-10 M) worked out at 58%; the “Percentage Inhibition” value (Experiment B, combination: Compound (II) 10^-6 M + Salbutamol 10^-8 M) was 38%; the “Percentage Inhibition” value (Experiment B, combination: Compound (II) 10^-6 M + Salbutamol 10^-9 M) was 96%; the “Percentage Inhibition” value (Experiment B, combination: Compound (II) 10^-6 M + Salbutamol 10^-10 M) was -11%; the “Percentage Inhibition” value (Experiment B, combination: Compound (II) 10^-7 M + Salbutamol 10^-8 M) stood at 64%. Besides, the “Percentage Inhibition” value runs as follows: (Experiment B, combination: Compound (II) 10^-7 M + Salbutamol 10^-9 M) 80.5%; (Experiment B, combination: Compound (II) 10^-7 M + Salbutamol 10^-10 M) -5%. For the same compound, the inhibition at 1 µM reads like this: (Homo sapiens, Experiment A, Salbutamol none, read-out: Percentage Inhibition of Histamine Release) 15%; (Homo sapiens, Experiment B, Salbutamol none, read-out: Percentage Inhibition of Histamine Release) -14.5%. For the same compound, under “Homo sapiens, Experiment B, Compound (II) 10^-7 M alone, Salbutamol none, read-out: Percentage Inhibition of Histamine Release”, the inhibition at 0.1 µM is -13%. Under “combined with bronchodilators acting directly or indirectly by stimulation”, the “anti-allergic effect in combination with bronchodilator stimulants” value is listed as “potentiated”.

With `CC(C)(C)NCC(O)c1ccc(O)c(CO)c1` (stereo not drawn) [Salbutamol, α'-t-butylaminomethyl-4-hydroxy-m-xylene-α',α^3-diol, reference compound], under setting [1], the inhibition at 0.001 µM was 0% and the inhibition at 0.0001 µM amounted to 17%. Besides, where the note is “Homo sapiens, Experiment B, Salbutamol 10^-8 M alone, Compound (II) none, read-out: Percentage Inhibition of Histamine Release”, the inhibition at 0.01 µM was found to be 27%. Further, under setting [2], the inhibition at 0.001 µM came to 22% and the inhibition at 0.0001 µM is 0.9%.
